Test results published in ChEMBL document CHEMBL1201862, “PubChem BioAssay data set” (2004).
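Growth conditions: 96-well plates. Treatment: test compound, 48 hours, 5 concentrations. Analysis: linear interpolation between bracketing concentrations; unreached endpoints set to highest concentration. Here, GI50 denotes the concentration required for 50% inhibition of growth.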 The source made the active and inactive calls. Cut-off read from the data, not from the text of the source: active = GI50 up to about 1.1 µM and inactive = higher.

What was measured:
Assay in all cases: growth of human tumour cells (NCI), 48 h
LOX IMVI = test system: LOX IMVI
UACC-257 = test system: UACC-257
PC-3 = test system: PC-3
SF-268 = test system: SF-268
MDA-MB-231 = test system: MDA-MB-231
RPMI-8226 = test system: RPMI-8226
DU-145 = test system: DU-145
NCI-H460 = test system: NCI-H460
U-251 = test system: U-251
SNB-19 = test system: SNB-19
NCI-H23 = test system: NCI-H23
IGROV-1 = test system: IGROV-1
SW-620 = test system: SW-620
NCI-H226 = test system: NCI-H226
MDA-MB-435 = test system: MDA-MB-435
HCT-116 = test system: HCT-116
BT-549 = test system: BT-549
786-0 = test system: 786-0
MOLT-4 = test system: MOLT-4
HOP-92 = test system: HOP-92

Measured: GI50

CCOC(=O)C(CO)c1nc2c([nH]c1=O)c(=O)n(C)c(=O)n2C (stereo not drawn)
inactive: LOX IMVI > 100 µM | UACC-257 > 100 µM | PC-3 > 100 µM | SF-268 > 100 µM | MDA-MB-231 > 100 µM | RPMI-8226 > 100 µM | DU-145 > 100 µM | NCI-H460 > 100 µM | U-251 > 100 µM | SNB-19 > 100 µM | NCI-H23 > 100 µM | IGROV-1 > 100 µM | SW-620 > 100 µM | NCI-H226 > 100 µM | MDA-MB-435 > 100 µM | HCT-116 > 100 µM | BT-549 > 100 µM | 786-0 > 100 µM

CC(C)(C)OC(=O)NC(Cc1ccc(OC(C)(C)C)cc1)C(=O)N[C@H]1CC[C@H](C(=O)O)C1 (stereo partly drawn)
inactive: LOX IMVI > 100 µM | UACC-257 > 100 µM | PC-3 89.1 µM | SF-268 > 100 µM | MOLT-4 > 100 µM | MDA-MB-231 > 100 µM | RPMI-8226 > 100 µM | DU-145 > 100 µM | NCI-H460 > 100 µM | U-251 > 100 µM | SNB-19 > 100 µM | NCI-H23 > 100 µM | IGROV-1 > 100 µM | SW-620 > 100 µM | NCI-H226 > 100 µM | MDA-MB-435 > 100 µM | HCT-116 > 100 µM | BT-549 45 µM | 786-0 > 100 µM

O=C1CCCNn2c(nc3ncccc3c2=O)N1
inactive: LOX IMVI > 100 µM | UACC-257 > 100 µM | PC-3 > 100 µM | SF-268 > 100 µM | MOLT-4 > 100 µM | MDA-MB-231 > 100 µM | RPMI-8226 > 100 µM | NCI-H460 > 100 µM | U-251 > 100 µM | SNB-19 > 100 µM | NCI-H23 > 100 µM | IGROV-1 > 100 µM | SW-620 > 100 µM | NCI-H226 > 100 µM | MDA-MB-435 > 100 µM | HOP-92 > 100 µM | HCT-116 > 100 µM | BT-549 > 100 µM | 786-0 > 100 µM

O=C(O)c1cccc(F)c1C(=O)c1ccc2ccccc2c1
inactive: LOX IMVI > 100 µM | UACC-257 > 100 µM | PC-3 > 100 µM | SF-268 > 100 µM | MDA-MB-231 > 100 µM | RPMI-8226 > 100 µM | NCI-H460 > 100 µM | U-251 > 100 µM | SNB-19 > 100 µM | IGROV-1 > 100 µM | SW-620 > 100 µM | NCI-H226 > 100 µM | MDA-MB-435 > 100 µM | HOP-92 > 100 µM | HCT-116 > 100 µM | BT-549 > 100 µM | 786-0 > 100 µM
